Patent EP4696306A1, “ADENOSINE TRIPHOSPHATE SECRETION INHIBITOR, HEPATIC STELLATE CELL ACTIVATION INHIBITOR, HEPATIC STELLATE CELL DEACTIVATOR, HEPATIC FIBROSIS THERAPEUTIC AGENT, NON-ALCOHOLIC STEATOHEPATITIS THERAPEUTIC AGENT, PSORIASIS THERAPEUTIC AGENT, AND USE OF COMPOUND FOR PRODUCING ADENOSINE TRIPHOSPHATE …” (KURUME UNIVERSITY, priority 2023, dated 2024)

Tests used:
LX-2 cells = assay: ATP secretion from LX-2 cells; format: cell-based, human
Protocol: Cells of the immortalized human hepatic stellate cell line LX-2 (manufactured by Merck) was cultured in Dulbecco's modified Eagle's medium (DMEM, 4500 mg/l Glucose, D5796, manufactured by Sigma-Aldrich) supplemented with inactivated 2% fetal bovine serum (FBS), 10 IU/ml penicillin, and 10 IU/ml streptomycin in a T25 or T75 flask at 37°C in 5% CO2.
LX-2 cells (2 × 10^6 cells per well) were seeded in a collagen-coated 6-well culture dish containing Dulbecco's modified Eagle's medium (manufactured by Sigma-Aldrich) supplemented with 10 IU/ml penicillin, […] 2% fetal bovine serum, and cultured in 5% CO2 at 37°C. After 3 days, the LX-2 cells were washed twice and preincubated in Krebs-Ringer buffer (10 mM HEPES-Tris, pH 7.4, 128 mM NaCl, 1.9 mM KCl, 1.2 mM KH2PO4, 1.3 mM MgSO4, 26 mM NaHCO3, 2.4 mM CaCl2, 10 mM glucose, 0.2% (w/v) bovine serum albumin) with or without 10 µM clodronate. The LX-2 cells were then stimulated with Krebs-Ringer buffer supplemented with ionomycin (manufactured by Cayman) regardless of whether clodronate was present or not. For the stimulation, 1 mM EGTA (manufactured by Dojindo) or 10 µM serotonin (5-HT, manufactured by Sigma-Aldrich) was used. The ATP concentration in the culture supernatant was measured in the same manner as in Example 6.

MCD diet-induced NASH = settings: administration of clodronate; Non Patent Literature 4; cited from earlier work
[1] = test system: Thioacetamide-induced hepatic fibrosis; assay: Thioacetamide-induced hepatic fibrosis in mice; format: in vivo
Protocol: Wild-type mice, […] (manufactured by Charles River Japan), were housed on a 12-hour light/dark cycle and fed a standard solid diet (5.4% fat, CRF-1, manufactured by Oriental Yeast Co., Ltd.) ad libitum. Thioacetamide (TAA, manufactured by FUJIFILM Wako Pure Chemical Corporation) was dissolved in physiological saline at 0.9% w/v. Eight-week-old mice were randomly assigned to three groups and continuously treated for 9 weeks according to the following scheme. At Week 9, all mice were euthanized 1 hour after administration of physiological saline or IMG.
Normal control group (N = 6): Physiological saline was intraperitoneally administered to mice three times per week. Eight hours after each administration, a vehicle was orally administered to the mice.
TAA group (N = 6): TAA(50 mg/kg, intraperitoneal) was administered to mice. Eight hours thereafter, physiological saline was orally administered to the mice. This treatment was performed three times per week for a total of 9 weeks.
TAA + IMG group (N = 6): During the first week, physiological saline was orally administered to mice. Thereafter, imeglimin (IMG) at 200 mg/kg was orally administered three times per week for 8 weeks. The administration of IMG was performed 8 hours after intraperitoneal administration of TAA (50 mg/kg).
For immunohistochemical analysis, liver samples were fixed in 4% paraformaldehyde, embedded in paraffin, and then sectioned. The sections were stained with HE or PSR. In addition, the paraffin-embedded sections were subjected to immunostaining using an α-SMA monoclonal antibody (1:500, catalog No. A5228, manufactured by Sigma-Aldrich) and an F4/80 monoclonal antibody (1:200, catalog No. MCA497GA, manufactured by AbD Serotec). The cell specimens were observed using a microscope (BZ-X700 series, manufactured by Keyence) or a confocal laser microscope (FV1000, manufactured by Olympus Corporation). The number of F4/80-positive cells was counted in four high-power fields per section. The α-SMA-positive area and the PSR-positive area were quantified using the image analysis software Fiji-ImageJ (1.54f).
A histological score was determined by a blinded investigator using the NAFLD histological scoring system of the Nonalcoholic Steatohepatitis Clinical Research Network. The total NAFLD activity score (NAS) was calculated from the total of the individual scores for steatosis ([…]), lobular inflammation (F4/80), and hepatocyte ballooning. The range of each parameter was 0 to 2 (ballooning) or 3 (the other two scores), where 0 indicates normal and 2 or 3 indicates severe. Staging of fibrosis was based on the NASH fibrosis stages, and a fibrosis stage ranging from 0 to 4 was determined according to Reference H (David E. Kleiner et al., 2005, Design and validation of a histological scoring system for nonalcoholic fatty liver disease, Hepatology, 41, 1313-1321).
All results are expressed as the mean ± standard error of the mean (S.E.M.). Statistical analyses were performed using GraphPad Prism 7.0 (GraphPad Software). Significance upon comparison between two groups was evaluated by an unpaired two-tailed Student's t-test. An unpaired two-tailed Student's t-test was used. Statistical significance among three or more groups was determined by two-way analysis of variance (ANOVA) with Tukey's or Dunnett's post hoc test. Coloc2 was used to perform image analysis, automatic thresholding, and pixel intensity correlation for statistical processing. Statistical significance was assumed when the P value was < 0.05.
In accordance with Example 15, immunostaining of α-SMA in liver sections and observation by fluorescence microscopy were performed for the normal control group, the TAA group, and the TAA + IMG group, and for a TAA + Clo group, which was treated in the same manner as the TAA + IMG group except that clodronate, instead of imeglimin, was administered at 30 mg/kg by blending it in the drinking water from 1 week after the start of TAA administration. […]

VNUT = molecular target: T1, VNUT (Homo sapiens, UniProt Q9BYT1); assay: Inhibitory effect on VNUT (data not shown); format: biochemical
T1 sequence (Q9BYT1 1-436): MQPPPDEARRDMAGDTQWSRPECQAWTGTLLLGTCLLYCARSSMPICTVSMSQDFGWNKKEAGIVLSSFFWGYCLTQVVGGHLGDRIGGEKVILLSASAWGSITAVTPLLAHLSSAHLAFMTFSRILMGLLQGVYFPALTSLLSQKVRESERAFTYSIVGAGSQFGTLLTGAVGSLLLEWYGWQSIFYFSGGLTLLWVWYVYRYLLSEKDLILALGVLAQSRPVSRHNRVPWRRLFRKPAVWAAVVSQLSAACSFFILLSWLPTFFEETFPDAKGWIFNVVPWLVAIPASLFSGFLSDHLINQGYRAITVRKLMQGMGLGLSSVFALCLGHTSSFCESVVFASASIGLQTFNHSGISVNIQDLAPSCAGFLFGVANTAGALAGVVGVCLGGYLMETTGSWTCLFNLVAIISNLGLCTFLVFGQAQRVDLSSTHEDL

V-ATPase = V-ATPase (Homo sapiens, UniProt P38606); assay: Inhibitory effect on V-ATPase (data not shown); format: biochemical
[2] = imeglimin 200 mg/kg orally three times per week for 8 weeks

Chain of V-ATPase (P38606 whole entry): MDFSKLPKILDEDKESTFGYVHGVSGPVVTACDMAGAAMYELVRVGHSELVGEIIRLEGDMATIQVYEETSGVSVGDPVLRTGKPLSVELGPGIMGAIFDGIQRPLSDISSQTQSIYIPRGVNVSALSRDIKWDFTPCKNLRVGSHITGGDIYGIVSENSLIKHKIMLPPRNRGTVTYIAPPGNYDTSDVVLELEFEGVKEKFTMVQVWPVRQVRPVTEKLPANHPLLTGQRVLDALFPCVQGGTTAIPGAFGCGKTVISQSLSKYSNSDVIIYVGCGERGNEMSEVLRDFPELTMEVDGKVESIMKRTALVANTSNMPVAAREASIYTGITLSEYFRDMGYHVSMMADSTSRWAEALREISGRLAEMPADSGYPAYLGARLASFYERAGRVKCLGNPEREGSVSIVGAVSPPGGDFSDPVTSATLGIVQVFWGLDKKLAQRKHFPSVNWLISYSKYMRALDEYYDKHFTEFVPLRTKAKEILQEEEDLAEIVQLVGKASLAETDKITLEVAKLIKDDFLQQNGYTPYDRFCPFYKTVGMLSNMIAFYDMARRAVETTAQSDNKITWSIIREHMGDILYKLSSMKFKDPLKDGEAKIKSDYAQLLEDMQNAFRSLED

| Structure (SMILES) | ATP exocytosis induced by ionomycin (LX-2 cells; 10 µM clodronate, N = 6) | ATP secretion promoted by 5-HT (LX-2 cells; 10 µM serotonin, 10 µM clodronate, N = 6) | NASH activity score, inflammatory cell infiltration, and hepatic fibrosis (MCD diet-induced NASH) | α-SMA-positive reaction in liver, increase by TAA ([1]; clodronate 30 mg/kg in the drinking water, immunostaining) | α-SMA-positive area fraction ([1]; clodronate 30 mg/kg in the drinking water, normal control 0.14 ± 0.01, TAA group 2.79 ± 0.33, four measurements per group) | ATP secretion from the LX-2 cells (LX-2 cells; imeglimin, concentration not given, N = 8) | inhibitory effect on VNUT (VNUT) | α-SMA in liver sections (immunostaining and fluorescence microscopy) ([1]; imeglimin 200 mg/kg orally) | α-SMA-positive reaction by Western blotting of liver tissue, increase due to TAA ([1]; imeglimin 200 mg/kg orally) | fibrosis score, increase by TAA [1, 2] | liver histology (HE staining) [1, 2] | positive reaction of F4/80-positive macrophages, increase by TAA [1, 2] | α-SMA-positive reaction (activation of hepatic stellate cells), increase by TAA [1, 2] | PSR staining-positive area (collagen fibers) ([1]; imeglimin 200 mg/kg orally three times per week for 8 weeks, versus TAA group) | inhibitory effect on V-ATPase (V-ATPase) |
| --- | --- | --- | --- | --- | --- | --- | --- | --- | --- | --- | --- | --- | --- | --- | --- |
| O=P(O)(O)C(Cl)(Cl)P(=O)(O)O [clodronate] | inhibited | strongly inhibited | improves the NASH activity score, inflammatory cell infiltration, and hepatic fibrosis | markedly suppressed | 0.71 ± 0.10 |  |  |  |  |  |  |  |  |  |  |
| C[C@H]1N=C(N(C)C)N=C(N)N1 [imeglimin] |  |  |  |  |  | inhibited ATP secretion | neither imeglimin nor metformin exhibited a strong inhibitory effect | effect similar to that of clodronate | markedly suppressed | suppressed | reduced destruction of the lobular structure, hepatocyte ballooning, and inflammatory cell infiltration | strongly suppressed | strongly suppressed | significantly reduced | neither imeglimin nor metformin exhibited a strong inhibitory effect |
